PubChem BioAssay AID330 (DTP/NCI, 2004)
Where “and” joins values, the source holds several entries; their conditions need not be identical. Identical values can stand only once. Inconclusive results and toxic doses are left out.

Test system: P388 leukemia ip, CD2F1 mice, survival T/C
Assay: NCI In Vivo Anticancer Drug Screen. Data for tumor model P388 Leukemia (intraperitoneal) in CD2F1 (CDF1) mice
Settings: endpoint: median survival time, higher = longer survival
Outline: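 Mice carrying the transplanted tumor received test compound or vehicle. Survival was recorded in each group, and the value is the treated-group measurement divided by that of the vehicle-treated control group.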

[1] = dose: 50.0 mg/kg/injection, schedule: Q01DX009 (ip), vehicle: saline
[2] = dose: 100.0 mg/kg/injection, schedule: Q01DX009 (ip), vehicle: saline
[3] = dose: 200.0 mg/kg/injection, schedule: Q01DX009 (ip), vehicle: saline
[4] = dose: 50.0 mg/kg/injection, schedule: Q01DX009 (ip), vehicle: Klucel (hydroxypropylcellulose) (HPC)

## NC(=O)CC1Cc2ccc3ccc(O)cc3c2C1=O (stereo not drawn)
dose: 12.5 mg/kg/injection, schedule: Q01DX009 (ip), vehicle: distilled water + Tween-80
  T/C: 100 % of control
dose: 25.0 mg/kg/injection, schedule: Q01DX009 (ip), vehicle: distilled water + Tween-80
  T/C: 97 % of control
dose: 50.0 mg/kg/injection, schedule: Q01DX009 (ip), vehicle: distilled water + Tween-80
  T/C: 93 % of control
dose: 100.0 mg/kg/injection, schedule: Q01DX009 (ip), vehicle: distilled water + Tween-80
  T/C: 94 % of control
dose: 200.0 mg/kg/injection, schedule: Q01DX009 (ip), vehicle: distilled water + Tween-80
  T/C: 95 % of control

## Nc1nccc([N+](=O)[O-])n1
[1]
  T/C: 97 % of control
[2]
  T/C: 99 % of control
[3]
  T/C: 100 % of control

## CS/C(=N/S(=O)(=O)c1ccccc1)NNC(=S)Nc1ccc(C(C)C)cc1
[1]
  T/C: 94 % of control
[2]
  T/C: 97 % of control
[3]
  T/C: 97 % of control

## N=c1ccn2c(n1)OC1C(OP(=O)(O)O)C(CO)OC12 (stereo not drawn)
dose: 177.0 mg/kg/injection, schedule: Q04DX003 (ip), vehicle: saline with Tween-80
  T/C: 154 % of control

## CCN(CC)CCN(C(=O)C1c2ccccc2Oc2ccccc21)C1CCCCC1
dose: 12.5 mg/kg/injection, schedule: Q01DX005 (ip), vehicle: Klucel (hydroxypropylcellulose) (HPC)
  T/C: 101 % of control
dose: 25.0 mg/kg/injection, schedule: Q01DX005 (ip), vehicle: Klucel (hydroxypropylcellulose) (HPC)
  T/C: 100 % of control
dose: 50.0 mg/kg/injection, schedule: Q01DX005 (ip), vehicle: Klucel (hydroxypropylcellulose) (HPC)
  T/C: 98 % of control and 92 % of control

## CSC(/C=N\O)=N/O
[4]
  T/C: 88 % of control
dose: 100.0 mg/kg/injection, schedule: Q01DX009 (ip), vehicle: Klucel (hydroxypropylcellulose) (HPC)
  T/C: 106 % of control
dose: 200.0 mg/kg/injection, schedule: Q01DX009 (ip), vehicle: Klucel (hydroxypropylcellulose) (HPC)
  T/C: 109 % of control

## COc1c(CO)c2c(c(OC)c1OC)-c1ccc(OC)c(=O)cc1[C@@H](NC(C)=O)CC2
dose: 25.0 mg/kg/injection, schedule: Q01DX009 (ip), vehicle: Klucel (hydroxypropylcellulose) (HPC)
  T/C: 160 % of control
[4]
  T/C: 185 % of control

## O=C(/C=C/c1ccccc1)c1ccccc1O
dose: 50.0 mg/kg/injection, schedule: Q01DX009 (ip), vehicle: saline with Tween-80
  T/C: 96 % of control
dose: 100.0 mg/kg/injection, schedule: Q01DX009 (ip), vehicle: saline with Tween-80
  T/C: 104 % of control
dose: 200.0 mg/kg/injection, schedule: Q01DX009 (ip), vehicle: saline with Tween-80
  T/C: 101 % of control

## Nn1cnc2c(ncn2C2OC(CO)C(O)C2O)c1=O (stereo not drawn)
dose: 60.0 mg/kg/injection, schedule: Q01DX005 (ip), vehicle: Klucel (hydroxypropylcellulose) (HPC)
  T/C: 98 % of control
dose: 120.0 mg/kg/injection, schedule: Q01DX005 (ip), vehicle: Klucel (hydroxypropylcellulose) (HPC)
  T/C: 99 % of control
dose: 240.0 mg/kg/injection, schedule: Q01DX005 (ip), vehicle: Klucel (hydroxypropylcellulose) (HPC)
  T/C: 97 % of control

## CC1CC(=O)NC(N)=N1 (stereo not drawn)
dose: 50.0 mg/kg/injection, schedule: Q01DX005 (ip), vehicle: saline
  T/C: 98 % of control
dose: 100.0 mg/kg/injection, schedule: Q01DX005 (ip), vehicle: saline
  T/C: 108 % of control
dose: 200.0 mg/kg/injection, schedule: Q01DX005 (ip), vehicle: saline
  T/C: 104 % of control

## COC(=O)C1c2cc3c(c(O)c2C(OC)CC1(C)O)C(=O)c1c(O)cc2c(c1C3=O)OC1OC2(C)C(O)C(N(C)C)C1O (stereo not drawn)
dose: 3.16 mg/kg/injection, schedule: Q01DX009 (ip), vehicle: other
  T/C: 156 % of control
dose: 5.0 mg/kg/injection, schedule: Q01DX009 (ip), vehicle: other
  T/C: 161 % of control
dose: 6.25 mg/kg/injection, schedule: Q01DX009 (ip), vehicle: other
  T/C: 168 % of control
dose: 10.0 mg/kg/injection, schedule: Q01DX009 (ip), vehicle: other
  T/C: 171 % of control
dose: 12.5 mg/kg/injection, schedule: Q01DX009 (ip), vehicle: other
  T/C: 168 % of control
dose: 20.0 mg/kg/injection, schedule: Q01DX009 (ip), vehicle: other
  T/C: 171 % of control
dose: 25.0 mg/kg/injection, schedule: Q01DX009 (ip), vehicle: other
  T/C: 198 % of control
dose: 40.0 mg/kg/injection, schedule: Q01DX009 (ip), vehicle: other
  T/C: 117 % of control

## COc1ccc(C2N=C(N)Nc3nc[nH]c32)c(OC)c1 (stereo not drawn)
dose: 50.0 mg/kg/injection, schedule: Q01DX009 (ip), vehicle: suspension in saline
  T/C: 102 % of control
dose: 100.0 mg/kg/injection, schedule: Q01DX009 (ip), vehicle: suspension in saline
  T/C: 115 % of control
dose: 200.0 mg/kg/injection, schedule: Q01DX009 (ip), vehicle: suspension in saline
  T/C: 109 % of control

## COc1ccc(CC(=O)C(=O)O)cc1OCc1ccccc1
dose: 50.0 mg/kg/injection, schedule: Q04DX003 (ip), vehicle: saline with Tween-80
  T/C: 96 % of control
dose: 200.0 mg/kg/injection, schedule: Q04DX003 (ip), vehicle: saline with Tween-80
  T/C: 101 % of control
dose: 400.0 mg/kg/injection, schedule: Q04DX003 (ip), vehicle: saline with Tween-80
  T/C: 99 % of control
